Source: PubChem BioAssay AID2060904 (Molecular Pharmacology Branch, DTP, NCI, 2025)
Each block holds one compound with its values, some of them ahead of it.

System: 349418-098-R-PDC complex spheroid viability
Test: Anticancer human tumor 349418-098-R-PDC patient-derived lung adenocarcinoma cell line growth inhibition [RAS]
Conditions: for IC50: curve of first compound; for viability, T/C: stronger effect = lower value
Method in brief: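 Multi-cell-type spheroids: tumor cells plus HUVEC endothelial cells and mesenchymal stem cells. RAS-pathway inhibitors were combined with targeted agents, each dosed in half-log steps down from clinical Cmax, or from 10 microM when Cmax was unknown.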

[1] = second compound 0.00316 µM, first compound 0.000949 µM
[2] = second compound 0.00316 µM, first compound 0.003 µM
[3] = second compound 0.00316 µM, first compound 0.00949 µM
[4] = second compound 0.00316 µM, first compound 0.03 µM
[5] = second compound 0.00316 µM, first compound 0.0949 µM
[6] = second compound 0.00316 µM, first compound 0.3 µM
[7] = second compound 0.01 µM, first compound 0.000949 µM
[8] = second compound 0.01 µM, first compound 0.003 µM
[9] = second compound 0.01 µM, first compound 0.00949 µM
[10] = second compound 0.01 µM, first compound 0.03 µM
[11] = second compound 0.01 µM, first compound 0.0949 µM
[12] = second compound 0.01 µM, first compound 0.3 µM
[13] = second compound 0.0316 µM, first compound 0.000949 µM
[14] = second compound 0.0316 µM, first compound 0.003 µM
[15] = second compound 0.0316 µM, first compound 0.00949 µM
[16] = second compound 0.0316 µM, first compound 0.03 µM
[17] = second compound 0.0316 µM, first compound 0.0949 µM
[18] = second compound 0.0316 µM, first compound 0.3 µM
[19] = second compound 0.1 µM, first compound 0.000949 µM
[20] = second compound 0.1 µM, first compound 0.003 µM
[21] = second compound 0.1 µM, first compound 0.00949 µM
[22] = second compound 0.1 µM, first compound 0.03 µM
[23] = second compound 0.1 µM, first compound 0.0949 µM
[24] = second compound 0.1 µM, first compound 0.3 µM
[25] = second compound 0.316 µM, first compound 0.000949 µM
[26] = second compound 0.316 µM, first compound 0.003 µM
[27] = second compound 0.316 µM, first compound 0.00949 µM
[28] = second compound 0.316 µM, first compound 0.03 µM
[29] = second compound 0.316 µM, first compound 0.0949 µM
[30] = second compound 0.316 µM, first compound 0.3 µM
[31] = second compound 1 µM, first compound 0.000949 µM
[32] = second compound 1 µM, first compound 0.003 µM
[33] = second compound 1 µM, first compound 0.00949 µM
[34] = second compound 1 µM, first compound 0.03 µM
[35] = second compound 1 µM, first compound 0.0949 µM
[36] = second compound 1 µM, first compound 0.3 µM
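Further: spheroids exposed to compound for seven days before viability readout.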

IC50 (second compound 0.00316 µM): < 31.6 nM
IC50 (second compound 0.01 µM): < 31.6 nM
IC50 (second compound 0.0316 µM): < 31.6 nM
IC50 (second compound 0.1 µM): < 31.6 nM
IC50 (second compound 0.316 µM): < 31.6 nM
IC50 (second compound 1 µM): < 31.6 nM
Compound: CC(=O)OC12COC1CC(O)C1(C)C(=O)C(O)C3=C(C)C(OC(=O)C(O)C(NC(=O)OC(C)(C)C)c4ccccc4)CC(O)(C(OC(=O)c4ccccc4)C21)C3(C)C (stereo unspecified) + C=CC(=O)N1CCN(c2nc(OCC3CCCN3C)nc3c(F)c(-c4nc(N)cc(C)c4C(F)(F)F)c(Cl)cc23)C(C)C1
viability, T/C (second compound 0.00316 µM, first compound 0.0316 µM): 12.6%
viability, T/C (second compound 0.00316 µM, first compound 0.1 µM): 17.8%
viability, T/C (second compound 0.00316 µM, first compound 0.316 µM): 16.3%
viability, T/C (second compound 0.00316 µM, first compound 1 µM): 20.1%
viability, T/C (second compound 0.00316 µM, first compound 3.16 µM): 23.8%
viability, T/C (second compound 0.00316 µM, first compound 10 µM): 23.6%
viability, T/C (second compound 0.01 µM, first compound 0.0316 µM): 12.8%
viability, T/C (second compound 0.01 µM, first compound 0.1 µM): 16.6%
viability, T/C (second compound 0.01 µM, first compound 0.316 µM): 14.5%
viability, T/C (second compound 0.01 µM, first compound 1 µM): 20.7%
viability, T/C (second compound 0.01 µM, first compound 3.16 µM): 19.3%
viability, T/C (second compound 0.01 µM, first compound 10 µM): 19.1%
viability, T/C (second compound 0.0316 µM, first compound 0.0316 µM): 16.9%
viability, T/C (second compound 0.0316 µM, first compound 0.1 µM): 15.2%
viability, T/C (second compound 0.0316 µM, first compound 0.316 µM): 15.4%
viability, T/C (second compound 0.0316 µM, first compound 1 µM): 22.6%
viability, T/C (second compound 0.0316 µM, first compound 3.16 µM): 22.9%
viability, T/C (second compound 0.0316 µM, first compound 10 µM): 26.5%
viability, T/C (second compound 0.1 µM, first compound 0.0316 µM): 13%
viability, T/C (second compound 0.1 µM, first compound 0.1 µM): 15%
viability, T/C (second compound 0.1 µM, first compound 0.316 µM): 16.5%
viability, T/C (second compound 0.1 µM, first compound 1 µM): 16.1%
viability, T/C (second compound 0.1 µM, first compound 3.16 µM): 24.3%
viability, T/C (second compound 0.1 µM, first compound 10 µM): 21.4%
viability, T/C (second compound 0.316 µM, first compound 0.0316 µM): 16.8%
viability, T/C (second compound 0.316 µM, first compound 0.1 µM): 18.1%
viability, T/C (second compound 0.316 µM, first compound 0.316 µM): 18.2%
viability, T/C (second compound 0.316 µM, first compound 1 µM): 18.2%
viability, T/C (second compound 0.316 µM, first compound 3.16 µM): 21.6%
viability, T/C (second compound 0.316 µM, first compound 10 µM): 25.6%
viability, T/C (second compound 1 µM, first compound 0.0316 µM): 13.8%
viability, T/C (second compound 1 µM, first compound 0.1 µM): 12%
viability, T/C (second compound 1 µM, first compound 0.316 µM): 18.8%
viability, T/C (second compound 1 µM, first compound 1 µM): 20.2%
viability, T/C (second compound 1 µM, first compound 3.16 µM): 20.2%
viability, T/C (second compound 1 µM, first compound 10 µM): 25.8%

IC50 (second compound 0.00316 µM): 1.25 nM
IC50 (second compound 0.01 µM): 1.19 nM
IC50 (second compound 0.0316 µM): < 0.949 nM
IC50 (second compound 0.1 µM): 1.07 nM
IC50 (second compound 0.316 µM): 1.16 nM
IC50 (second compound 1 µM): 1.27 nM
Compound: CC1(C)CCC(Nc2ncc(C(F)(F)F)c(-c3c[nH]c4c(P(C)(C)=O)c(C#N)ccc34)n2)CN1 (stereo unspecified) + C=CC(=O)N1CCN(c2nc(OCC3CCCN3C)nc3c(F)c(-c4nc(N)cc(C)c4C(F)(F)F)c(Cl)cc23)C(C)C1
viability, T/C [1]: 57.1%
viability, T/C [2]: 27.2%
viability, T/C [3]: 15.7%
viability, T/C [4]: 9.16%
viability, T/C [5]: 9.76%
viability, T/C [6]: 8.19%
viability, T/C [7]: 56.4%
viability, T/C [8]: 24.6%
viability, T/C [9]: 16.1%
viability, T/C [10]: 9.39%
viability, T/C [11]: 12.1%
viability, T/C [12]: 7.38%
viability, T/C [13]: 44%
viability, T/C [14]: 23.3%
viability, T/C [15]: 18.3%
viability, T/C [16]: 11.6%
viability, T/C [17]: 11.7%
viability, T/C [18]: 8.91%
viability, T/C [19]: 53.1%
viability, T/C [20]: 25.3%
viability, T/C [21]: 12.4%
viability, T/C [22]: 14.6%
viability, T/C [23]: 13.2%
viability, T/C [24]: 8.82%
viability, T/C [25]: 54.9%
viability, T/C [26]: 29.1%
viability, T/C [27]: 14.6%
viability, T/C [28]: 12.8%
viability, T/C [29]: 13.3%
viability, T/C [30]: 9.31%
viability, T/C [31]: 58.9%
viability, T/C [32]: 24.2%
viability, T/C [33]: 15.7%
viability, T/C [34]: 14.2%
viability, T/C [35]: 10.3%
viability, T/C [36]: 7.97%

IC50 (second compound 0.00316 µM): 0.951 nM
IC50 (second compound 0.01 µM): 1.8 nM
IC50 (second compound 0.0316 µM): 1.75 nM
IC50 (second compound 0.1 µM): 0.985 nM
IC50 (second compound 0.316 µM): 1.2 nM
IC50 (second compound 1 µM): 1.69 nM
Compound: CCc1c2c(nc3ccc(O)cc13)-c1cc3c(c(=O)n1C2)COC(=O)[C@]3(O)CC + C=CC(=O)N1CCN(c2nc(OCC3CCCN3C)nc3c(F)c(-c4nc(N)cc(C)c4C(F)(F)F)c(Cl)cc23)C(C)C1
viability, T/C [1]: 50%
viability, T/C [2]: 28.8%
viability, T/C [3]: 6.39%
viability, T/C [4]: 4.43%
viability, T/C [5]: 3.41%
viability, T/C [6]: 2.43%
viability, T/C [7]: 69.1%
viability, T/C [8]: 35%
viability, T/C [9]: 7.67%
viability, T/C [10]: 4.23%
viability, T/C [11]: 2.64%
viability, T/C [12]: 1.87%
viability, T/C [13]: 70.9%
viability, T/C [14]: 31.7%
viability, T/C [15]: 11.7%
viability, T/C [16]: 4.13%
viability, T/C [17]: 2.62%
viability, T/C [18]: 2.07%
viability, T/C [19]: 50.8%
viability, T/C [20]: 27.1%
viability, T/C [21]: 10.5%
viability, T/C [22]: 4.6%
viability, T/C [23]: 3.02%
viability, T/C [24]: 2.05%
viability, T/C [25]: 57.2%
viability, T/C [26]: 21.9%
viability, T/C [27]: 7.59%
viability, T/C [28]: 4.71%
viability, T/C [29]: 2.92%
viability, T/C [30]: 1.94%
viability, T/C [31]: 73.1%
viability, T/C [32]: 26.9%
viability, T/C [33]: 9.24%
viability, T/C [34]: 5.15%
viability, T/C [35]: 3.55%
viability, T/C [36]: 2.46%
